Data reported in US10865316B2 (Clemson University Research Foundation, priority 2015, dated 2020).
“Also recorded” adds a separate entry of the source.

Key:
[1] = test system: oyster hemocytes; format: cell-based
[2] = test system: 3-day old cyprid; details: in vivo

pGlu Gly Val Cys Cys Gly Tyr Lys Leu Cys His Hyp Cys-NH2 [SEQ ID NO: 13]
apoptosis in oyster hemocytes [1]: cause apoptosis | cyprid settlement [2]: inhibited cyprid settlement; also recorded: promoted settlement
